Measurements as given in patent publication US20230017045A1, “PYRIDINE AND PYRIMIDINE CARBOXYLATE HERBICIDES AND METHODS OF USE THEREOF” (Dow AgroSciences LLC, priority 2017, published 2023).
Read-outs that look alike come from different tables or passages of the source.

System: test plant species
Assay: Post-emergent herbicidal activity test (greenhouse, foliar spray, visual growth reduction)
Type: in vivo
Conditions: post-emergence, 336 h, 140 g ai/ha
Method in brief: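 Greenhouse plants at first–second true leaf stage sprayed overhead at 187 L/ha with compound in acetone/water/isopropanol/DMSO/crop oil/X-77 carrier; controls received solvent blank. Injury rated visually after 14 d on a 0–100% scale versus untreated and control plants, converted to growth reduction.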

[1] = ECHCG: barnyardgrass (Echinochloa crus-galli), 14 days after application, read-out: Visual Growth Reduction (%) 14 Days After Application, ECHCG
[2] = IPOHE: ivy-leaf morning glory (Ipomoea hederacea), 14 days after application, read-out: Visual Growth Reduction (%) 14 Days After Application, IPOHE
[3] = KCHSC: kochia (Bassia scoparia), 14 days after application, read-out: Visual Growth Reduction (%) 14 Days After Application, KCHSC
[4] = ORYSA: rice (Oryza sativa), 14 days after application, read-out: Visual Growth Reduction (%) 14 Days After Application, ORYSA
[5] = SETFA: giant foxtail (Setaria faberi), 14 days after application, read-out: Visual Growth Reduction (%) 14 Days After Application, SETFA
[6] = SORVU: grain sorghum (Sorghum vulgare), 14 days after application, read-out: Visual Growth Reduction (%) 14 Days After Application, SORVU
[7] = STEME: common chickweed (Stellaria media), 14 days after application, read-out: Visual Growth Reduction (%) 14 Days After Application, STEME
[8] = TRZAS: wheat, spring (Triticum aestivum), 14 days after application, read-out: Visual Growth Reduction (%) 14 Days After Application, TRZAS
[9] = blackgrass (Alopecurus myosuroides), 14 Days After Application, read-out: Visual Growth Reduction (%) ALOMY
[10] = canada thistle (Cirsium arvense), 14 Days After Application, read-out: Visual Growth Reduction (%) CIRAR
[11] = crabgrass (Digitaria sanguinalis), 14 Days After Application, read-out: Visual Growth Reduction (%) DIGSA
[12] = lambsquarters (Chenopodium album), 14 Days After Application, read-out: Visual Growth Reduction (%) CHEAL
[13] = redroot pigweed (Amaranthus retroflexus), 14 Days After Application, read-out: Visual Growth Reduction (%) AMARE
[14] = wild oat (Avena fatua), 14 Days After Application, read-out: Visual Growth Reduction (%) AVEFA
[15] = yellow nutsedge (Cyperus esculentus), 14 Days After Application, read-out: Visual Growth Reduction (%) CYPES
[16] = ALOMY: blackgrass (Alopecurus myosuroides), 14 days after application, read-out: Visual Growth Reduction (%) 14 Days After Application, ALOMY
[17] = AMARE: redroot pigweed (Amaranthus retroflexus), 14 days after application, read-out: Visual Growth Reduction (%) 14 Days After Application, AMARE
[18] = AVEFA: wild oat (Avena fatua), 14 days after application, read-out: Visual Growth Reduction (%) 14 Days After Application, AVEFA
[19] = CHEAL: lambsquarters (Chenopodium album), 14 days after application, read-out: Visual Growth Reduction (%) 14 Days After Application, CHEAL
[20] = CIRAR: canada thistle (Cirsium arvense), 14 days after application, read-out: Visual Growth Reduction (%) 14 Days After Application, CIRAR
[21] = CYPES: yellow nutsedge (Cyperus esculentus), 14 days after application, read-out: Visual Growth Reduction (%) 14 Days After Application, CYPES
[22] = DIGSA: crabgrass (Digitaria sanguinalis), 14 days after application, read-out: Visual Growth Reduction (%) 14 Days After Application, DIGSA

| Compound | pest or weed control at 140 g/ha [1] | pest or weed control at 140 g/ha [2] | pest or weed control at 140 g/ha [3] | pest or weed control at 140 g/ha [4] | pest or weed control at 140 g/ha [5] | pest or weed control at 140 g/ha [6] | pest or weed control at 140 g/ha [7] | pest or weed control at 140 g/ha [8] | pest or weed control at 140 g/ha [9] | pest or weed control at 140 g/ha [10] | pest or weed control at 140 g/ha [11] | pest or weed control at 140 g/ha [12] | pest or weed control at 140 g/ha [13] | pest or weed control at 140 g/ha [14] | pest or weed control at 140 g/ha [15] | pest or weed control at 140 g/ha [16] | pest or weed control at 140 g/ha [17] | pest or weed control at 140 g/ha [18] | pest or weed control at 140 g/ha [19] | pest or weed control at 140 g/ha [20] | other results |
| --- | --- | --- | --- | --- | --- | --- | --- | --- | --- | --- | --- | --- | --- | --- | --- | --- | --- | --- | --- | --- | --- |
| COC(=O)c1nc(-c2ccc(C(F)F)cc2)c(F)cc1Cl [F209, Methyl 3-chloro-6-(4-(difluoromethyl)phenyl)-5-fluoropicolinate] | 0 to 29% | 85 to 94% | 0 to 29% | 0 to 29% | 0 to 29% | 0 to 29% | 0 to 29% | 0 to 29% | 0 to 29% | 60 to 74% | 0 to 29% | 85 to 94% | 45 to 59% | 0 to 29% | 0 to 29% | – | – | – | – | – | – |
| COC(=O)c1nc(-c2ccc(C(F)(F)F)cc2Cl)ccc1Cl [F66, methyl 3-chloro-6-(2-chloro-4-(trifluoromethyl)phenyl)picolinate] | 95 to 100% | 95 to 100% | 60 to 74% | 45 to 59% | 95 to 100% | 85 to 94% | 0 to 29% | – | – | – | – | – | – | – | – | 45 to 59% | 95 to 100% | 60 to 74% | 85 to 94% | 95 to 100% | pest or weed control at 140 g/ha [21]: 0 to 29%; pest or weed control at 140 g/ha [22]: 95 to 100% |
| COC(=O)c1nc(-c2ccc(C(F)(F)F)c3ccoc23)c(F)cc1Cl [F297, Methyl 3-chloro-5-fluoro-6-(4-(trifluoromethyl)benzofuran-7-yl) picolinate] | 0 to 29% | 95 to 100% | 45 to 59% | 0 to 29% | 60 to 74% | 60 to 74% | 0 to 29% | 0 to 29% | 0 to 29% | 85 to 94% | 75 to 84% | 85 to 94% | 85 to 94% | 0 to 29% | 0 to 29% | – | – | – | – | – | – |
| COC(=O)c1cc2c(c(-c3nc(C(=O)OC)c(Cl)cc3F)c1)OC(F)(F)O2 [F244, Methyl 3-chloro-6-(2,2-difluoro-6-(methoxycarbonyl)benzo[d][1,3]dioxol-4-yl)-5-fluoropicolinate] | 0 to 29% | 0 to 29% | 0 to 29% | 0 to 29% | 0 to 29% | 0 to 29% | 0 to 29% | 0 to 29% | 0 to 29% | 0 to 29% | 0 to 29% | 60 to 74% | 0 to 29% | 0 to 29% | 0 to 29% | – | – | – | – | – | – |
| COC(=O)c1cccc(-c2ccc(C(F)(F)F)cc2Cl)n1 [F55, Methyl 6-(2-chloro-4-(trifluoromethyl)phenyl)picolinate] | 0 to 29% | 30 to 44% | 0 to 29% | 0 to 29% | 0 to 29% | 0 to 29% | 0 to 29% | 0 to 29% | – | – | – | – | – | – | – | 0 to 29% | 95 to 100% | 0 to 29% | 60 to 74% | 0 to 29% | pest or weed control at 140 g/ha [21]: 0 to 29%; pest or weed control at 140 g/ha [22]: 0 to 29% |
| COc1cc(C(F)(F)F)cc(Cl)c1-c1ccc(Cl)c(C(=O)O)n1 [F223, 3-Chloro-6-(2-chloro-6-methoxy-4-(trifluoromethyl)phenyl) picolinic acid] | 75 to 84% | 95 to 100% | 95 to 100% | 30 to 44% | 85 to 94% | 85 to 94% | 60 to 74% | 75 to 84% | 0 to 29% | 95 to 100% | 60 to 74% | 95 to 100% | 95 to 100% | 60 to 74% | 45 to 59% | – | – | – | – | – | – |
| COC(=O)c1nc(-c2ccc(C3(C#N)CC3)cc2Cl)c(F)cc1Cl [F237, Methyl 3-chloro-6-(2-chloro-4-(1-cyanocyclopropyl)phenyl)-5-fluoropicolinate] | 30 to 44% | 95 to 100% | 85 to 94% | 0 to 29% | 75 to 84% | 85 to 94% | 30 to 44% | 45 to 59% | 0 to 29% | 95 to 100% | 85 to 94% | 85 to 94% | 95 to 100% | 45 to 59% | 45 to 59% | – | – | – | – | – | – |
| COC(=O)c1nc(-c2c(Cl)cc(C(F)(F)F)cc2[S+](C)[O-])ccc1Cl (centres unmarked) [F120, methyl 3-chloro-6-(2-chloro-6-(methylsulfinyl)-4-(trifluoromethyl)phenyl)picolinate] | 0 to 29% | 30 to 44% | 60 to 74% | 0 to 29% | 0 to 29% | 0 to 29% | 0 to 29% | 0 to 29% | – | – | – | – | – | – | – | 0 to 29% | 45 to 59% | 0 to 29% | 30 to 44% | 60 to 74% | pest or weed control at 140 g/ha [21]: 0 to 29%; pest or weed control at 140 g/ha [22]: 0 to 29% |
| O=C(O)c1nc(-c2ccc(C(F)(F)F)cc2Cl)ccc1Cl [F61, 3-chloro-6-(2-chloro-4-(trifluoromethyl)phenyl)picolinic acid] | 85 to 94% | 95 to 100% | 85 to 94% | 45 to 59% | 85 to 94% | 85 to 94% | 0 to 29% | 85 to 94% | – | – | – | – | – | – | – | 60 to 74% | 95 to 100% | 60 to 74% | 95 to 100% | 85 to 94% | pest or weed control at 140 g/ha [21]: 0 to 29%; pest or weed control at 140 g/ha [22]: 95 to 100% |
| COC(=O)c1nc(-c2ccc3c(c2C)OC(F)(F)O3)c(F)cc1Cl [F233, Methyl 3-chloro-6-(2,2-difluoro-4-methylbenzo[d][1,3]dioxol-5-yl)-5-fluoropicolinate] | 45 to 59% | 95 to 100% | 85 to 94% | 0 to 29% | 85 to 94% | 85 to 94% | 45 to 59% | 60 to 74% | 75 to 84% | 95 to 100% | 95 to 100% | 95 to 100% | 95 to 100% | 45 to 59% | 45 to 59% | – | – | – | – | – | – |
